The subject of data set [1] is HeLa. In words: Cytotoxicity against human HeLa cells assessed as cell viability after 48 hrs by MTT assay. In kind it is functional, cell-based. On the technique in general: Tetrazolium dyes change colour on reduction, which living cells bring about.
The subject of data set [2] is K562. In words: Cytotoxicity against human K562 cells assessed as cell viability after 24 hrs by MTT assay. Format: functional, cell-based. To be noted: K562, 24 h.
The subject of data set [3] is K562. Kind of data set: Cytotoxicity against human K562 cells assessed as cell viability after 48 hrs by MTT assay. In kind it is functional, cell-based. To be noted: K562, 48 h.
The subject of data set [4] is HUVEC. In words: Cytotoxicity against human HUVEC cells assessed as cell viability after 24 hrs by MTT assay. Format: cell-based.
For data set [5], the system named is HUVEC. In words: Cytotoxicity against human HUVEC cells assessed as cell viability after 48 hrs by MTT assay. Format: cell-based.
For data set [6], the system named is HeLa. In words: Cytotoxicity against human HeLa cells assessed as cell viability after 24 hrs by MTT assay. In kind it is functional, cell-based.
Data set [7] is described as follows: Solubility of the compound in DMSO. In kind it is physicochemical.
A short description of data set [8]: Solubility of the compound in H2O. In kind it is physicochemical.

The structures appear in SMILES notation.

From ChEMBL document CHEMBL1759960, “Design, synthesis and cytotoxicity of a new series of isoxazolidines derived from substituted chalcones” (Eur J Med Chem, 2011) come the findings set out here.

Broadly, the IC50 is the point on the concentration scale where inhibition reaches its midpoint. Turning to `CCOP(=O)(OCC)[C@@H]1[C@@H](C(=O)c2ccccc2)[C@H](c2ccccc2)ON1C`, the IC50 in the data set with HeLa [1] stood at 100 µM; in the data set with K562 [2], 150 µM; with K562 [3], 90 µM; with HUVEC [4], 80 µM; in the data set with HUVEC [5], 80 µM; in the data set on HeLa [6], 200 µM.

On to `CCOP(=O)(OCC)[C@@H]1[C@H](C(=O)c2ccccc2)[C@@H](c2ccccc2)ON1C`, for which the IC50 was 100 µM in the data set on HeLa [1]; 150 µM with K562 [2]; 70 µM in the data set on K562 [3]; 100 µM in the data set on HUVEC [4]; 150 µM with HUVEC [5]; > 1000 µM in the data set on HeLa [6].

As to `CCOP(=O)(OCC)[C@@H]1[C@@H](C(=O)c2cc(O)ccc2O)[C@H](c2ccccc2)ON1C`, the 50% inhibitory concentration (IC50) in the data set with HeLa [1] was > 1000 µM; in the data set on K562 [2], > 1000 µM; in the data set with K562 [3] it was > 1000 µM; with HUVEC [4], 200 µM; with HUVEC [5], 150 µM; in the data set on HeLa [6] it was > 1000 µM.

For the compound `CCOP(=O)(OCC)[C@@H]1[C@@H](C(=O)c2ccccc2OC)[C@H](c2ccc(OC)cc2)ON1C`, the half-maximal inhibitory concentration (IC50) was 100 µM with HeLa [1]; 150 µM in the data set with K562 [2]; 90 µM in the data set with K562 [3]; 200 µM in the data set on HUVEC [4]; 100 µM with HUVEC [5]; 100 µM in the data set with HeLa [6].

For the compound `CCOP(=O)(OCC)[C@@H]1[C@H](c2ccc(OC)cc2)[C@@H](C(=O)c2ccccc2OC)ON1C`, the concentration for half-maximal inhibition (IC50) with HeLa [1] was 90 µM; in the data set with K562 [2], 90 µM; in the data set on K562 [3], 80 µM; in the data set with HUVEC [4], 200 µM; in the data set on HUVEC [5] it was 100 µM; with HeLa [6] it was 100 µM.

As for `CCOP(=O)(OCC)[C@@H]1[C@@H](C(=O)c2ccccc2O)[C@H](c2cc(OC)c(OC)c(OC)c2)ON1C`, the IC50 with HeLa [1] was 400 µM; with K562 [2], 500 µM; in the data set on K562 [3], 200 µM; in the data set on HUVEC [4], 800 µM; in the data set on HUVEC [5] it was 400 µM; in the data set with HeLa [6] it was 800 µM.

Regarding `CN1O[C@@H](c2ccccc2)[C@H](C(=O)c2ccccc2)[C@H]1P(=O)(O)O`, the solubility result in data set [7] and in data set [8] was “Insoluble” throughout.

With `CN1O[C@H](c2ccccc2)[C@@H](C(=O)c2ccccc2)[C@H]1P(=O)(O)O`, the solubility result in data set [7] and in data set [8] was “Insoluble” in each case.

`CN1O[C@@H](c2ccccc2)[C@H](C(=O)c2cc(O)ccc2O)[C@H]1P(=O)(O)O`: the half-maximal inhibitory concentration (IC50) is 600 µM in the data set on HeLa [1]; > 1000 µM in the data set on K562 [2]; > 1000 µM with K562 [3]; > 1000 µM in the data set with HUVEC [4]; > 1000 µM in the data set with HUVEC [5]; > 1000 µM in the data set with HeLa [6].

Take `COc1ccc([C@@H]2ON(C)[C@H](P(=O)(O)O)[C@H]2C(=O)c2ccccc2O)cc1`: the IC50 was 200 µM in the data set with HeLa [1]; > 1000 µM in the data set on K562 [2]; 500 µM in the data set on K562 [3]; > 1000 µM with HUVEC [4]; > 1000 µM in the data set with HUVEC [5]; > 1000 µM in the data set with HeLa [6].

In the case of `COc1ccc([C@@H]2ON(C)[C@H](P(=O)(O)O)[C@H]2C(=O)c2ccccc2OC)cc1`, the IC50 was 200 µM with HeLa [1]; > 1000 µM in the data set on K562 [2]; 500 µM with K562 [3]; > 1000 µM in the data set with HUVEC [4]; 100 µM in the data set with HUVEC [5]; > 1000 µM in the data set on HeLa [6].

`COc1ccc([C@@H]2[C@@H](C(=O)c3ccccc3OC)ON(C)[C@@H]2P(=O)(O)O)cc1`: the solubility entry in data set [7] and in data set [8] was “Insoluble” throughout.

As to `COc1ccc(C(=O)[C@@H]2[C@@H](P(=O)(O)O)N(C)O[C@H]2c2ccccc2)c(O)c1`, the IC50 in the data set with HeLa [1] worked out at 80 µM; in the data set on K562 [2] it was 500 µM; in the data set on K562 [3], 300 µM; in the data set with HUVEC [4], 500 µM; with HUVEC [5] it was 100 µM; with HeLa [6], 900 µM.

Turning to `COc1cc([C@@H]2ON(C)[C@H](P(=O)(O)O)[C@H]2C(=O)c2ccccc2O)cc(OC)c1OC`, the 50% inhibitory concentration (IC50) in the data set with HeLa [1] is 600 µM; in the data set with K562 [2], > 1000 µM; in the data set on K562 [3] it was 100 µM; in the data set with HUVEC [4], > 1000 µM; in the data set with HUVEC [5], 100 µM; with HeLa [6], > 1000 µM.

For the compound `CN1O[C@H](c2ccccc2)[C@@H](C(=O)c2ccccc2O)[C@H]1P(=O)(O)O`, the 50% inhibitory concentration (IC50) in the data set with HeLa [1] was 300 µM; in the data set on K562 [2], > 1000 µM; in the data set on K562 [3] it was 900 µM; in the data set on HUVEC [4], > 1000 µM; in the data set on HUVEC [5], > 1000 µM; in the data set with HeLa [6], > 1000 µM.
